Results published in US4873233A, “17-Substituted androsta-1,4-dien-3-one derivatives” (Farmitalia Carlo Erba S.p.a., priority 1987, dated 1989).

Target: T1, androgen receptor (Rattus norvegicus, UniProt P15207)
T1 sequence (P15207 1-902): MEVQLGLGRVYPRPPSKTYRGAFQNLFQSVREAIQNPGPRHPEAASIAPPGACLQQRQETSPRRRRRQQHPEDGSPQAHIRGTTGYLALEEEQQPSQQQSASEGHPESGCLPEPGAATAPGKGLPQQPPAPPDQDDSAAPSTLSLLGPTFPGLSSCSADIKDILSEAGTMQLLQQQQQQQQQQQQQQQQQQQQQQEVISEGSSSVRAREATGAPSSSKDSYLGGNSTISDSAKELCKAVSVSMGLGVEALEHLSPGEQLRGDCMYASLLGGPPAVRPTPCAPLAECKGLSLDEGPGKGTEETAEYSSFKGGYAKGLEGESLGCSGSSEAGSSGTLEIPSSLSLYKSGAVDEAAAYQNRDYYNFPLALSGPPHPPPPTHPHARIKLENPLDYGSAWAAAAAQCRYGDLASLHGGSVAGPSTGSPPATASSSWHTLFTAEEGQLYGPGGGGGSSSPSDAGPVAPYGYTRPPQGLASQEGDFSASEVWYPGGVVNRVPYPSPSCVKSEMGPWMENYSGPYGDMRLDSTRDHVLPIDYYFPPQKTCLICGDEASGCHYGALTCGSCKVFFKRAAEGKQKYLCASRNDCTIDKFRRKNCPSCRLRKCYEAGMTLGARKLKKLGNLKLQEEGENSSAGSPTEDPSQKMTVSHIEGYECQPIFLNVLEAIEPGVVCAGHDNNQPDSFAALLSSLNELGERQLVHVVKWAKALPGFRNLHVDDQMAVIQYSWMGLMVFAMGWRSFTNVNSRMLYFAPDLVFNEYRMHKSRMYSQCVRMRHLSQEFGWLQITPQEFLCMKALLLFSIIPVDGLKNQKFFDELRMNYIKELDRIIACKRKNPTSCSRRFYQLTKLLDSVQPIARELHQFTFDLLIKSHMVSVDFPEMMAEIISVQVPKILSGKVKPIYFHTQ
Experiment: Binding affinity to cytoplasmic androgen (rat prostate) receptors, dextran-coated charcoal adsorption technique
Procedure: Binding affinity to cytoplasmic androgen (rat prostate) receptors was determined by standard dextran-coated charcoal adsorption technique (Raynaud J. P. et al. J. Steroid. Biochem. 6, 615-622, 1975).
Prostatic tissue, obtained from both adrenalectomized and orchidectomized Sprague-Dawley rats, was homogenized (1:10 weight:vol ratio) in 10 mM Tris-HCl PH 7.4, containing 1.5 nM EDTA and 1 mM dithiothreitol, in motor driven tissue grinders. The homogenate was centrifuged at 105,000×g for 1 h at 2° C. Aliquots of cytosol (0.2 ml) were incubated for 2 h at 0° C. with various concentrations of the test compounds, in duplicate, and a fixed amount of [^3 H]-5α-dihydrotestosterone (DHT, final concentration 1 nM in 0.4 ml of incubation volume). Then, free radioactivity was adsorbed on 0.2 ml of dextran-coated charcoal suspension and after centrifugation at 1,500×g for 10 min, the bound radioactivity in the supernatant was determined by liquid scintillation in RIaluma.

## C=C1C[C@H]2[C@@H]3CC[C@H](O)[C@@]3(C)CC[C@@H]2[C@@]2(C)C=CC(=O)C=C12 [6-methylenandrosta-1,4-diene-17β-ol-3-one]
  affinity to the androgen receptor (in words): very high affinity
Versus 6-methylenandrosta-1,4-diene-3,17-dione
  times more potent than the correspondent 17-cheto-derivative (androgen receptor affinity): 76 times
